# Reference: PMC10174618, “Monoterpenoid aryl hydrocarbon receptor allosteric antagonists protect against ultraviolet skin damage in female mice” (Nature Communications, 2023)
# Assays:
# Assay in all cases: biochemical
# Parameters in all cases: KINOMEscan scanMAX active site-directed competition binding assay, percent of control, 468 kinases
# Settings in all cases: competition binding, percent of control
# BRK = biological target: T1, BRK (Homo sapiens, UniProt Q13882)
# T1 construct: gene PTK6
# In short: (§1)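 Single-concentration screen (100 μM S-carvone) in a competition binding panel of 468 human kinases (KINOMEscan scanMAX); results given as percent of control, hit cutoff 35%.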
# CAMKK2 = CAMKK2 (Homo sapiens, UniProt Q96RR4)
# In short: as §1
# CDKL3 = CDKL3 (Homo sapiens, UniProt Q8IVW4)
# In short: as §1
# CLK1 = CLK1 (Homo sapiens, UniProt P49759)
# In short: as §1
# CSNK1D = CSNK1D (Homo sapiens, UniProt P48730)
# In short: as §1
# DAPK1 = DAPK1 (Homo sapiens, UniProt P53355)
# Sequence of DAPK1 (P53355 whole entry): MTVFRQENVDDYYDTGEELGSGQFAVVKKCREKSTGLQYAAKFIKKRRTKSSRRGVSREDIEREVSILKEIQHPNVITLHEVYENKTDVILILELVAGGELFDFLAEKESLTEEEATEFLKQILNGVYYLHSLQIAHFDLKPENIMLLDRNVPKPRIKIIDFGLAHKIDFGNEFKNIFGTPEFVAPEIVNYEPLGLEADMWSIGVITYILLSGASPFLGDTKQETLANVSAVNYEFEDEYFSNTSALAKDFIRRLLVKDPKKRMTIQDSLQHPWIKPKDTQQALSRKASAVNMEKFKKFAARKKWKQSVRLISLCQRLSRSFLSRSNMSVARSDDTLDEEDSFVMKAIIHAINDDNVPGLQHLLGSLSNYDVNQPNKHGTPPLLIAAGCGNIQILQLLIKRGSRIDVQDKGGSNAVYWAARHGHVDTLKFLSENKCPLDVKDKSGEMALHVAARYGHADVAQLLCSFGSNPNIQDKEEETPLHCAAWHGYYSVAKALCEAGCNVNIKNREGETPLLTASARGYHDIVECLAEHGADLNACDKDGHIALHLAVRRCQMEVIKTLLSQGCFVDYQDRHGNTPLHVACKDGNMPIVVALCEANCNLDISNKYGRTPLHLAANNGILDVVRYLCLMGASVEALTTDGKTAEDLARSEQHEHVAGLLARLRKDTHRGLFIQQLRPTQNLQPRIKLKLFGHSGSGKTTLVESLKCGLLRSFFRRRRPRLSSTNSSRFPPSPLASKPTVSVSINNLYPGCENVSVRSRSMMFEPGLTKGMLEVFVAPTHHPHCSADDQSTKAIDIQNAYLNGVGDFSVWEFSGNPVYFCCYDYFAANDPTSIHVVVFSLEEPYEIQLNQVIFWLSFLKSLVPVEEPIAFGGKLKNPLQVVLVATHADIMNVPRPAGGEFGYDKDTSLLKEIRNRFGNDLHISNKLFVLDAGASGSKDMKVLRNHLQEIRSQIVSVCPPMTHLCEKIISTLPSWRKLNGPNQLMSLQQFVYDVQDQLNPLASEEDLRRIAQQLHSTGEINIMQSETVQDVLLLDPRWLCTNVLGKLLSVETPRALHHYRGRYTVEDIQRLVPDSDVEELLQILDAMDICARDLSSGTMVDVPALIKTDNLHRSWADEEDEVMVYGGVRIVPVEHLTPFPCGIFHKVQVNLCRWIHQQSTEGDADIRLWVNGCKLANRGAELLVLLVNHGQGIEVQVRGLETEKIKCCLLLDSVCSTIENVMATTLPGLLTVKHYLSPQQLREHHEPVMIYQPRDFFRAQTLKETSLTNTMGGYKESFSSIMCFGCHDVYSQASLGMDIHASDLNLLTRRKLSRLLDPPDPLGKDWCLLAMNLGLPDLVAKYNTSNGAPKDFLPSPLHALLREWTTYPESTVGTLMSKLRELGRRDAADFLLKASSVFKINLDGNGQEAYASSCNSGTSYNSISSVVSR
# In short: as §1
# EPHA2 = EPHA2 (Homo sapiens, UniProt P29317)
# In short: as §1
# KIT(A829P) = KIT(A829P) (Homo sapiens, UniProt P10721, A829P)
# Sequence of KIT(A829P) (P10721 whole entry A829P): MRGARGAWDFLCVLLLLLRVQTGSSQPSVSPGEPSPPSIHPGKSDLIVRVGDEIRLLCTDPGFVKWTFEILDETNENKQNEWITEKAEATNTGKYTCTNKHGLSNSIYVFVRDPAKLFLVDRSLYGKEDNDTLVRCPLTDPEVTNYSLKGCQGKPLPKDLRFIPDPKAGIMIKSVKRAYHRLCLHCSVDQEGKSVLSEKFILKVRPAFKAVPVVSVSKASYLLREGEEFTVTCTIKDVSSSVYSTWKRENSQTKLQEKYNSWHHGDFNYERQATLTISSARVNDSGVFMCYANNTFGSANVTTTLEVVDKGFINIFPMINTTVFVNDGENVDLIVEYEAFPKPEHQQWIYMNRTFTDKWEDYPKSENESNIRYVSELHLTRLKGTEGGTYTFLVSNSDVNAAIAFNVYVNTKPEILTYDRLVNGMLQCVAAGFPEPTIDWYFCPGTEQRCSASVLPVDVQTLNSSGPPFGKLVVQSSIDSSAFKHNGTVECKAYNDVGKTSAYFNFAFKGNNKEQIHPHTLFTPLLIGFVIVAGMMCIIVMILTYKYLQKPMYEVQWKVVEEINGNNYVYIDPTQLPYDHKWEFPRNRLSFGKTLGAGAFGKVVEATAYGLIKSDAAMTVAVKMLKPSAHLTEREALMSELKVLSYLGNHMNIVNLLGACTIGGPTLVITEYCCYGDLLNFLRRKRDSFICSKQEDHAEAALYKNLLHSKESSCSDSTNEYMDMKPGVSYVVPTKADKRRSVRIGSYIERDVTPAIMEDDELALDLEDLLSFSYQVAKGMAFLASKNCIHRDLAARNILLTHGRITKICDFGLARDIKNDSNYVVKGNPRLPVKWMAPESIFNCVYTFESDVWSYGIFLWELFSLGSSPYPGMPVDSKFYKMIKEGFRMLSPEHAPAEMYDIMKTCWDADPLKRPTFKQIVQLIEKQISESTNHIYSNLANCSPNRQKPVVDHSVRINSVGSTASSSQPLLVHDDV
# In short: as §1
# LOK = biological target: T2, LOK (Homo sapiens, UniProt O94804)
# T2 construct: gene STK10
# In short: as §1
# MLK3 = biological target: T3, MLK3 (Homo sapiens, UniProt Q16584)
# T3 construct: gene MAP3K11
# In short: as §1
# NEK3 = NEK3 (Homo sapiens, UniProt P51956)
# In short: as §1
# NIK = biological target: T4, NIK (Homo sapiens, UniProt Q99558)
# T4 construct: gene MAP3K14
# In short: as §1
# PAK1 = PAK1 (Homo sapiens, UniProt Q13153)
# In short: as §1
# PIK3CA(E545K) = PIK3CA(E545K) (Homo sapiens, UniProt P42336, E545K)
# Sequence of PIK3CA(E545K) (P42336 whole entry E545K): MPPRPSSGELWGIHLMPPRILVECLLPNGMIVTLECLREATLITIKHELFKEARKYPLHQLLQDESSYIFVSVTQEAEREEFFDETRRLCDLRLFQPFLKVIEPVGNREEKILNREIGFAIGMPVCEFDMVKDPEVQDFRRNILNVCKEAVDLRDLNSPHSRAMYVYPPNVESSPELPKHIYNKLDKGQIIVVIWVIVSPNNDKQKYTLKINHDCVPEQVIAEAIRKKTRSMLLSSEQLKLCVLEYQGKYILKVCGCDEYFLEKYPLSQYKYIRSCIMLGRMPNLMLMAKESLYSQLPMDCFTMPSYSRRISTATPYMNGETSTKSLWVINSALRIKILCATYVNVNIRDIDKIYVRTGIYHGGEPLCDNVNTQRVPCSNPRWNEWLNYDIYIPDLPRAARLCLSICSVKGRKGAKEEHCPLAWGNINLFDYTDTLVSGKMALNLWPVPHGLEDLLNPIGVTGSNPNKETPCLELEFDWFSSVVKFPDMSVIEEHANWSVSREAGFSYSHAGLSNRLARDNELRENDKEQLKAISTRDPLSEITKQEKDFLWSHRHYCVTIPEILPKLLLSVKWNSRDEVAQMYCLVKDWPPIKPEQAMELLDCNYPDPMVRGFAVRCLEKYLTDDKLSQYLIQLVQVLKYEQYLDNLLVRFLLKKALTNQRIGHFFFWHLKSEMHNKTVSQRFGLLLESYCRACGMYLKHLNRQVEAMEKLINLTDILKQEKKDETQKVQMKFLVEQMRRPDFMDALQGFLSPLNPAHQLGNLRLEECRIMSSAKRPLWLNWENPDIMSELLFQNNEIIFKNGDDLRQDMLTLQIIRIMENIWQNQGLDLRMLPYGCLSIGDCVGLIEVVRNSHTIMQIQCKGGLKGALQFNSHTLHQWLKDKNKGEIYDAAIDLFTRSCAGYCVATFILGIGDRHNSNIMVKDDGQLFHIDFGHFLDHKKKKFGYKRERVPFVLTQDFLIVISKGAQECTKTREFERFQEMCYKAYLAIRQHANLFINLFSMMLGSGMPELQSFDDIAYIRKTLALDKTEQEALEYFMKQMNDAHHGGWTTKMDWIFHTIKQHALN
# In short: as §1
# PIK3CA(M1043I) = PIK3CA(M1043I) (Homo sapiens, UniProt P42336, M1043I)
# Sequence of PIK3CA(M1043I) (P42336 whole entry M1043I): as the sequence (P42336 whole entry E545K) above, with K545E, M1043I counted along it
# In short: as §1
# PIK3CD = PIK3CD (Homo sapiens, UniProt O00329)
# In short: as §1
# RIPK1 = RIPK1 (Homo sapiens, UniProt Q13546)
# In short: as §1
# ROCK1 = ROCK1 (Homo sapiens, UniProt Q13464)
# Sequence of ROCK1 (Q13464 whole entry): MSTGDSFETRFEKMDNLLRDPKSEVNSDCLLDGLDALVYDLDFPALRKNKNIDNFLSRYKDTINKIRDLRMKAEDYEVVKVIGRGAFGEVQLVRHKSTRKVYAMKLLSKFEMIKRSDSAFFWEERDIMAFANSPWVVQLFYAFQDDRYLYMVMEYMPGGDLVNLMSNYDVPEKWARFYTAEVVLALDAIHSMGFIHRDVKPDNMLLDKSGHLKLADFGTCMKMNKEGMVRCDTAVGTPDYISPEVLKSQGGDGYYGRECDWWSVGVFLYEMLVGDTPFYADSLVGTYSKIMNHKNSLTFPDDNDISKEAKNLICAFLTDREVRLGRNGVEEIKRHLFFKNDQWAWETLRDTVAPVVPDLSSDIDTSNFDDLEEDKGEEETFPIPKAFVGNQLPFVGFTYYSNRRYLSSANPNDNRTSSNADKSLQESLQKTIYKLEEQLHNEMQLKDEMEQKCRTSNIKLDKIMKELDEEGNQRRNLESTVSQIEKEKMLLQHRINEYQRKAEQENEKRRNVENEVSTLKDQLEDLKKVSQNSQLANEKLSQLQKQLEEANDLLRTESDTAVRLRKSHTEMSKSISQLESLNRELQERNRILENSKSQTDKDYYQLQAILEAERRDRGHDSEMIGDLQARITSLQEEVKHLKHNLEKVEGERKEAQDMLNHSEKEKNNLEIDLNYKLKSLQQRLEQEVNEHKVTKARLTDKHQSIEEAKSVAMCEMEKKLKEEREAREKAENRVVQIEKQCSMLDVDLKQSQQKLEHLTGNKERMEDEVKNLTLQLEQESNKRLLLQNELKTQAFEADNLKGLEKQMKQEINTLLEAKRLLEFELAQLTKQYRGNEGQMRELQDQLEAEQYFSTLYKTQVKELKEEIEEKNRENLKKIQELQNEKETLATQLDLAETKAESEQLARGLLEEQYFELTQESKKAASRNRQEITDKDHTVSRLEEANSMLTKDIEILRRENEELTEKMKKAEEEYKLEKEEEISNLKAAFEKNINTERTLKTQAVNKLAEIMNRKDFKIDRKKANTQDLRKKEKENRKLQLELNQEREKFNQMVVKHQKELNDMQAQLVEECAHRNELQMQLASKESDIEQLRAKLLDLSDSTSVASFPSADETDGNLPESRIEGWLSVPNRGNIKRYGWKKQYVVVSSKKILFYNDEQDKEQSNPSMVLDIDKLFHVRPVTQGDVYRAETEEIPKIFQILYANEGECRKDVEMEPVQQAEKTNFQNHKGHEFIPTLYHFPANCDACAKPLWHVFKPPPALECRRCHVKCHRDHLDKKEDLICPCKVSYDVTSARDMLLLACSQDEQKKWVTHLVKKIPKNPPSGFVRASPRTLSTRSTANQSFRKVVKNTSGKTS
# In short: as §1
# TAOK2 = TAOK2 (Homo sapiens, UniProt Q9UL54)
# In short: as §1
# TIE1 = TIE1 (Homo sapiens, UniProt P35590)
# In short: as §1
# WEE2 = WEE2 (Homo sapiens, UniProt P0C1S8)
# In short: as §1
# p38-delta = biological target: T5, p38-delta (Homo sapiens, UniProt O15264)
# T5 construct: gene MAPK13
# In short: as §1
structure (smiles),measurement,setting,value
C=C(C)[C@H]1CC=C(C)C(=O)C1 [S-carvone],remaining binding at 100 µM,BRK,86%
same,remaining binding at 100 µM,CAMKK2,81%
same,remaining binding at 100 µM,CDKL3,89%
same,remaining binding at 100 µM,CLK1,94%
same,remaining binding at 100 µM,CSNK1D,68%
same,remaining binding at 100 µM,DAPK1,65%
same,remaining binding at 100 µM,EPHA2,71%
same,remaining binding at 100 µM,KIT(A829P),84%
same,remaining binding at 100 µM,LOK,87%
same,remaining binding at 100 µM,MLK3,73%
same,remaining binding at 100 µM,NEK3,49%
same,remaining binding at 100 µM,NIK,84%
same,remaining binding at 100 µM,PAK1,66%
same,remaining binding at 100 µM,PIK3CA(E545K),63%
same,remaining binding at 100 µM,PIK3CA(M1043I),83%
same,remaining binding at 100 µM,PIK3CD,87%
same,remaining binding at 100 µM,RIPK1,87%
same,remaining binding at 100 µM,ROCK1,100%
same,remaining binding at 100 µM,TAOK2,78%
same,remaining binding at 100 µM,TIE1,89%
same,remaining binding at 100 µM,WEE2,88%
same,remaining binding at 100 µM,p38-delta,57%
